# Laboratory results reported in patent publication US5086054A, “Novel arylcycloalkanepolyalkylamines” (SRI International, priority 1990, dated 1992).
# “Also recorded” adds a separate entry of the source. Where two headings read alike, the source gives them in different places.
# How the values were obtained:
# [1] = system: PCP RECEPTOR; test: PCP receptor binding assay ([3H]-TCP displacement, brain membranes); parameters: species or system guinea-pig (male Hartley); settings: for IC50: read-out: PCP RECEPTOR IC50
# Method: (§1) This example illustrates testing of compounds in receptor binding assays.
# (§2) Frozen brains from male Hartley guinea-pigs were obtained from Pel-Freeze (Rogers, Arkansas).
# (§3) The brains plus cerebella were homogenized in 10 volumes (v/w) of 0.1M, pH 7.4, ice-cold Tris-HCl buffer with a Brinkmann polytron at setting 4 for 20 seconds. The homogenates were centrifuged at 20,000×g for 20 minutes at 4° C. The pellets were suspended in 10 volumes of ice-cold water and, after sitting on ice for 10 minutes, were centrifuged 30 minutes at 20,000×g at 4° C. The resulting pellets were resuspended in the above Tris buffer in ratio 1:100 (w/v) for σ receptor assays or in 5 mM Tris-HCl having pH 7.4, for PCP receptor assays. The final suspension was homogenized with a dounce glass-glass tissue grinder Wheaton "200", at small clearance (B), with three strokes before use. Two milliter aliquots of the brain membrane preparation, containing 1.7 mg of protein, were incubated in quadruplicate for one hour at 23° C. with competing mixture of ligand and radioligand. For σ receptors, [^3 H]-d-SKF-10,047, 2 nM was used. For PCP receptors, [^3 H] TCP [^3 H]-1-[1-(2-thienyl)cyclohexyl]piperidine), 1 nM was used. The nonspecific bindings were defined by 0.1 mM d-SKF-10,047 and 0.1 mM phencyclidine respectively for σ and PCP receptors. After incubation, free ligand was separated from bound ligand by rapid filtration through Whatman GF/C filters. The filters had been soaked before use in isoamyl alcohol-saturated water to prevent nonspecific [^3 H]-d-SKF-10,047 binding to the filter. In the PCP receptor assay, the filter was soaked in 0.5% polyethylenimine to reduce the filter binding of [^3 H]-TCP. After filtration, the trapped tissue was washed three times with 4 ml aliquots of 0.1 M ice-cold Tris buffer at pH 7.4 for σ receptors and 5 mM, ice-cold Tris buffer pH 7.4 for PCP receptors. The filters were transferred to 5 ml of liquid scintillation fluid and the retained radioactivity was measured by liquid scintillation spectrometry.
# Programs in Biomed. 17:107 (1983)].
# [2] = biological target: T1, SIGMA RECEPTOR (Cavia porcellus, UniProt Q60492); test: Sigma receptor binding assay ([3H]-d-SKF-10,047 displacement, brain membranes); parameters: species or system guinea-pig (male Hartley)
# T1 construct: Two milliter aliquots of the brain membrane preparation, containing 1.7 mg of protein; tissue Pel-Freeze (Rogers, Arkansas); host or cells: guinea-pig brains plus cerebella, membranes
# T1 sequence (Q60492 whole entry): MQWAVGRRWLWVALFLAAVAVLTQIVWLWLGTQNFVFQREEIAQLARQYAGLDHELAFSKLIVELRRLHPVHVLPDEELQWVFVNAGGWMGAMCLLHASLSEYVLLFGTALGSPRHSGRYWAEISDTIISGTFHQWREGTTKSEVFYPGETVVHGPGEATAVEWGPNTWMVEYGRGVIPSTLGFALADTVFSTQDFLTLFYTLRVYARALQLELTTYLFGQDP
# Method: as §1, §2, §3
# [3] = Table 2, aryl ring substituents
# [4] = Table 1, slope of dose response curve
# [5] = Table 1, mean ± error (n), read-out: SIGMA RECEPTOR IC50
# [6] = SIGMA RECEPTOR IC50, Table 1, mean ± error (n)
# [7] = Table 2, aryl ring substituents, read-out: SIGMA RECEPTOR IC50
SMILES,potency at PCP receptors (in words) [1],"IC50 ([1]; Table 1, mean ± error (n))","IC50 [1, 3]",potency at σ receptors (in words) [2],"SIGMA RECEPTOR SLOPE [2, 4]",SIGMA RECEPTOR SLOPE ([2]; Table 2),"IC50 [2, 5]","IC50 [2, 7]",selectivity for σ receptors (in words) [2],other results
c1ccc(C2(CN3CCCCC3)CCCCC2)cc1 [Compound 2],reduced the potency in the PCP receptor assay,1830 nM,1830 nM,increased the potency of the compound in the σ receptor assay,0.66 ± 0.1,0.66 ± 0.1,–,–,–,"IC50 ([1]; Table 3, cycloalkyl ring size): 1830 nM; decreased potency for PCP receptors ([1]; relative to PCP (1)): approximately 40 times; SIGMA RECEPTOR SLOPE ([2]; Table 3): 0.66 ± 0.01; IC50 ([2]; Table 3, cycloalkyl ring size, read-out: SIGMA RECEPTOR IC50): 104 nM; increased potency for σ receptors ([2]; relative to PCP (1)): about 80 times"
C[N+]1(CCOC(=O)C2(c3ccccc3)CCCCC2)CCCCC1 [Compound 4],reduced the potency in the PCP receptor assay; also recorded: drastically reduced potency for both σ and PCP receptors; also recorded: inactive in the PCP assay; also recorded: did not increase potency for PCP receptors,> 25000 nM,–,–,–,–,> 25000 nM,–,–,–
"c1ccc(C2(N3CCCC3)CCCCC2)cc1 [Compound 5, 1-(1-phenylcyclohexyl)pyrrolidine, reference compound]",–,110 ± 6 nM,–,–,0.83 ± 0.06,–,–,–,–,"IC50 [2, 6]: 7730 nM"
c1ccc(C2(CN3CCCC3)CCCCC2)cc1 [Compound 6],already inactive at PCP receptors,1270 nM,–,increased potency for σ receptors,0.88 ± 0.07,0.88 ± 0.07,4740 nM,4750 nM,–,–
c1ccc(C2(CCN3CCCC3)CCCCC2)cc1 [Compound 7],decreased the potency in the PCP receptor assay,1720 nM,–,–,1.22 ± 0.03,–,141 nM,–,–,increased potency for σ receptors ([2]; relative to PCPY (5)): approximately 30 fold
C[N+]1(CCOC(=O)C2(c3ccccc3)CCCCC2)CCCC1 [Compound 9],inactive in the PCP assay; also recorded: did not increase potency for PCP receptors,> 25000 nM,–,σ receptor potency increased; also recorded: effectively reversed the potency for σ receptors,0.62 ± 0.18,–,242 nM,–,–,–
"c1ccc(C2(N3CCOCC3)CCCCC2)cc1 [Compound 10, 4-(1-phenylcyclohexyl)morpholine, reference compound]",–,633 ± 71 nM,–,–,0.47 ± 0.02,–,–,–,–,"IC50 [2, 6]: 2530 nM"
c1ccc(C2(CN3CCOCC3)CCCCC2)cc1 [Compound 11],inactive in the PCP receptor assay,> 25000 nM,> 25000 nM,increased potency for σ receptors,0.60 ± 0.03,0.60 ± 0.03,710 nM,–,–,–
"CCN(CC)C1(c2ccccc2)CCCCC1 [Compound 13, N,N-diethyl-1-phenylcyclohexylamine, reference compound]",–,331 ± 34 nM,–,–,0.40 ± 0.07,–,–,–,–,"IC50 [2, 6]: 573 nM"
CCN(CC)CC1(c2ccccc2)CCCCC1 [Compound 14],inactive in the PCP receptor assay,> 25000 nM,> 25000 nM,increased potency for σ receptors,0.66 ± 0.17,0.66 ± 0.17,208 nM,–,–,–
CC[N+](C)(CC)CCOC(=O)C1(c2ccccc2)CCCCC1 [Compound 16],inactive in the PCP assay; also recorded: did not increase potency for PCP receptors,> 25000 nM,–,σ receptor potency increased; also recorded: effectively reversed the potency for σ receptors,0.86 ± 0.07,–,2230 nM,–,–,–
"CN(C)C1(c2ccccc2)CCCCC1 [Compound 17, N,N-dimethyl-1-phenylcyclohexylamine, reference compound]",–,242 ± 8 nM,–,–,0.53 ± 0.05,–,–,–,–,"IC50 [2, 6]: 1950 nM"
CN(C)CC1(c2ccccc2)CCCCC1 [Compound 18],inactive in the PCP receptor assay,> 25000 nM,> 25000 nM,increased potency for σ receptors,0.85 ± 0.07,0.85 ± 0.07,4130 nM,4130 nM,–,–
C[N+](C)(C)CCOC(=O)C1(c2ccccc2)CCCCC1 [Compound 20],inactive in the PCP assay; also recorded: did not increase potency for PCP receptors,> 25000 nM,–,–,1.22 ± 0.15,–,12300 nM,–,–,–
Oc1cccc(C2(CN3CCCCC3)CCCCC2)c1 [Compound 21],–,–,> 25000 nM,diminished binding to σ receptors,–,–,–,> 25000 nM,–,–
Cc1ccc(C2(CN3CCCCC3)CCCCC2)cc1 [Compound 23],–,–,> 25000 nM,slightly lower σ receptor potencies,–,0.69 ± 0.01,–,223 nM,substantially increases selectivity for σ receptors,–
O=[N+]([O-])c1ccc(C2(CN3CCCCC3)CCCCC2)cc1 [Compound 24],–,–,> 25000 nM,slightly lower σ receptor potencies,–,0.47 ± 0.06,–,249 nM,substantially increases selectivity for σ receptors,–
Clc1cccc(C2(CN3CCCCC3)CCCCC2)c1 [Compound 25],showed some potency at PCP receptors,–,1830 nM,most potent at σ receptors,–,0.69 ± 0.05,–,–,least specific,IC50 ([2]; read-out: IC50 at σ receptors): 71 nM
COc1cccc(C2(CN3CCCCC3)CCCCC2)c1 [Compound 26],–,–,> 25000 nM,slightly lower σ receptor potencies,–,0.74 ± 0.07,–,326 nM,substantially increases selectivity for σ receptors,–
COc1ccc(C2(CN3CCCCC3)CCCCC2)cc1 [Compound 27],–,–,> 25000 nM,slightly lower σ receptor potencies,–,0.69 ± 0.04,–,221 nM,substantially increases selectivity for σ receptors,–
COc1ccc(C2(CN3CCCCC3)CCCCC2)cc1OC [Compound 28],–,–,> 25000 nM,slightly lower σ receptor potencies; also recorded: poor to reasonable potency at σ sites,–,0.56 ± 0.03,–,387 ± 18 nM,substantially increases selectivity for σ receptors; also recorded: high selectivity for σ receptors,–
Oc1cccc(C2(CN3CCCC3)CCCCC2)c1 [Compound 29],–,–,1320 nM,only slight effect on σ receptor potency,–,0.80 ± 0.07,–,1080 nM,selectivity for σ receptors was poor,–
Oc1ccc(C2(CN3CCCC3)CCCCC2)cc1 [Compound 30],inactive at PCP receptor sites,–,> 25000 nM,did not improve potency as much as the 3-hydroxy derivative,–,0.78 ± 0.02,–,1740 nM,considerably improved selectivity for σ receptors,–
O=[N+]([O-])c1ccc(C2(CN3CCCC3)CCCCC2)cc1 [Compound 31],inactive at PCP sites,–,> 25000 nM,somewhat potent,–,0.65 ± 0.05,–,282 nM,very selective for σ receptors,–
Clc1cccc(C2(CN3CCCC3)CCCCC2)c1 [Compound 32],–,–,867 ± 9 nM,–,–,0.73 ± 0.16,–,248 nM,–,–
COc1cccc(C2(CN3CCCC3)CCCCC2)c1 [Compound 33],–,–,552 ± 20 nM,–,–,0.73 ± 0.08,–,1190 nM,–,–
